{"source": "ChEMBL document CHEMBL5465560", "about": "“Selectivity Literature for EUbOPEN Chemogenomic Library” (2024)", "key": {"[1]": {"target": "Casein kinase I isoform alpha (Homo sapiens, UniProt P48729)", "sequence (P48729 2-337 limits assumed)": "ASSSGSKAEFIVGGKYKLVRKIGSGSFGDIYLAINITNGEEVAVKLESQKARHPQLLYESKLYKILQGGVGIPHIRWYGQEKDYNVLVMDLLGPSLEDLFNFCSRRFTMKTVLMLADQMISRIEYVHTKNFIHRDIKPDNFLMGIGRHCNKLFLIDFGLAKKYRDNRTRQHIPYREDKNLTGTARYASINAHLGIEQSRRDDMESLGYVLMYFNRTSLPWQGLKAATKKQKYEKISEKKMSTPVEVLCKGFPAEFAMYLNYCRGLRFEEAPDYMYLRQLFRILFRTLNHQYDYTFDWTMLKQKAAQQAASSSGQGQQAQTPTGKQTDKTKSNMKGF", "conditions": "at 10 µM"}, "[2]": {"system": "Epidermal growth factor receptor (Homo sapiens), P00533 [G719S]", "sequence (P00533 whole entry G719S)": "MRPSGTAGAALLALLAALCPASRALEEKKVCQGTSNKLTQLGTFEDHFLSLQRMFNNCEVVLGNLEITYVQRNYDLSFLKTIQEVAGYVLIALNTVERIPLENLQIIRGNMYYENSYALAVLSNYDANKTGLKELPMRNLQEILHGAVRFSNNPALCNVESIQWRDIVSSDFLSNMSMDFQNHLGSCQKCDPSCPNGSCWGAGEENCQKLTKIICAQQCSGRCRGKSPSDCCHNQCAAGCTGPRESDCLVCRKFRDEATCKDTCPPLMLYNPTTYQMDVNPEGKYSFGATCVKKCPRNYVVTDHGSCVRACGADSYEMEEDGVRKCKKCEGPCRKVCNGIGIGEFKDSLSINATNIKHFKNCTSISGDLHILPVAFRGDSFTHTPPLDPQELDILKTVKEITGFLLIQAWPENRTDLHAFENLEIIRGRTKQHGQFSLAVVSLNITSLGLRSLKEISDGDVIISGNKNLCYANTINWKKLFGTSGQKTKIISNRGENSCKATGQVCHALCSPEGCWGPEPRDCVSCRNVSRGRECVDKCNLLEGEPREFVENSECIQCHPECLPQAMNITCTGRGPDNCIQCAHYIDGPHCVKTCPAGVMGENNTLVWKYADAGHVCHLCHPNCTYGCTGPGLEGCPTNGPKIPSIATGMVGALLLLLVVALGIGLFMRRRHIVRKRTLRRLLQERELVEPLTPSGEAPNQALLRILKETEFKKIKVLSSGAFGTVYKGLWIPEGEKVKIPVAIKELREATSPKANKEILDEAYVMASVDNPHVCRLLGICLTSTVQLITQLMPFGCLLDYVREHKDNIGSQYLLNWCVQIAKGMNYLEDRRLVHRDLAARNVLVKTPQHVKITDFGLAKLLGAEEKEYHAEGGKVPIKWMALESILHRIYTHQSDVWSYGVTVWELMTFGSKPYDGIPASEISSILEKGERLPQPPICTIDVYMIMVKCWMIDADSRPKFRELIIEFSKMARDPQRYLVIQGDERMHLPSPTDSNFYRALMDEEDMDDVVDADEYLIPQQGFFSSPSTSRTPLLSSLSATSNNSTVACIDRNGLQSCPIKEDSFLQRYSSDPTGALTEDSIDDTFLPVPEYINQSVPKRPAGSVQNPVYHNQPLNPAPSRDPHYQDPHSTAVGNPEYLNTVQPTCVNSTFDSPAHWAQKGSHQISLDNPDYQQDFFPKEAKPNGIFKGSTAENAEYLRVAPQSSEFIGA", "conditions": "at 10 µM"}, "[3]": {"target": "Serine/threonine-protein kinase pim-2 (Homo sapiens, UniProt Q9P1W9)", "sequence (Q9P1W9 whole entry, looked up)": "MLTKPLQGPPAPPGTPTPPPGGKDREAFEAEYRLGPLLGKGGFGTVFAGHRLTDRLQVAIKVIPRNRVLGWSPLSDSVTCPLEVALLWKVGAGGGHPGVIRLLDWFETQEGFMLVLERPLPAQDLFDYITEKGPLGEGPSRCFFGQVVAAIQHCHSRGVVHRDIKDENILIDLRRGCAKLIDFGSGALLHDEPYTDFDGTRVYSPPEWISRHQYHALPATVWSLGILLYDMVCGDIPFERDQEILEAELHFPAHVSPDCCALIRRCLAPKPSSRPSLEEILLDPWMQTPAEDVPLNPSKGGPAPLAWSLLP", "test": "Selectivity interaction (Ambit KINOMEscan and KiNATiv profiling in Jurkat cells) EUB0000090b PIM2", "format": "cell-based", "conditions": "at 1 µM"}, "[4]": {"target": "Phosphatidylinositol 4,5-bisphosphate 3-kinase catalytic subunit beta isoform (Homo sapiens) (UniProt P42338)", "test": "Selectivity interaction (Kinase panel (literature)) EUB0001199aCl PIK3CB", "conditions": "at 1 µM"}, "[5]": {"target": "T1, MAP kinase-activated protein kinase 5 (Homo sapiens) (UniProt Q8IW41)", "T1 sequence (whole entry)": "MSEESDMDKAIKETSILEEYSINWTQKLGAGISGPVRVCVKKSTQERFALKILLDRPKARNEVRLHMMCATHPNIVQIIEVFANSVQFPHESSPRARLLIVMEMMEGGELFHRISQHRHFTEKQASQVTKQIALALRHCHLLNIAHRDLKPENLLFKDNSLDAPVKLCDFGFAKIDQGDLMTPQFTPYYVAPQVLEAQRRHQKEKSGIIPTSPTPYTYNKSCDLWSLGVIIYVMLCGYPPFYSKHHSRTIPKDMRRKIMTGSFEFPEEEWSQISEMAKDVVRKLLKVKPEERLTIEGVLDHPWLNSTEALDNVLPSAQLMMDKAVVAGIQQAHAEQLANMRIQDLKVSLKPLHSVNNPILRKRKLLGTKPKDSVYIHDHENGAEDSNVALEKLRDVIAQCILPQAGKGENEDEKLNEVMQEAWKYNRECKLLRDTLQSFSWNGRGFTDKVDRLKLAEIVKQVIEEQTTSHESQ", "test": "Selectivity interaction (KinomeScan (DiscoverX)) EUB0000695a MAPKAPK5", "conditions": "at 100 nM"}, "[6]": {"target": "Mitogen-activated protein kinase kinase kinase 20 (Homo sapiens) (UniProt Q9NYL2)", "sequence (Q9NYL2 2-800 limits assumed)": "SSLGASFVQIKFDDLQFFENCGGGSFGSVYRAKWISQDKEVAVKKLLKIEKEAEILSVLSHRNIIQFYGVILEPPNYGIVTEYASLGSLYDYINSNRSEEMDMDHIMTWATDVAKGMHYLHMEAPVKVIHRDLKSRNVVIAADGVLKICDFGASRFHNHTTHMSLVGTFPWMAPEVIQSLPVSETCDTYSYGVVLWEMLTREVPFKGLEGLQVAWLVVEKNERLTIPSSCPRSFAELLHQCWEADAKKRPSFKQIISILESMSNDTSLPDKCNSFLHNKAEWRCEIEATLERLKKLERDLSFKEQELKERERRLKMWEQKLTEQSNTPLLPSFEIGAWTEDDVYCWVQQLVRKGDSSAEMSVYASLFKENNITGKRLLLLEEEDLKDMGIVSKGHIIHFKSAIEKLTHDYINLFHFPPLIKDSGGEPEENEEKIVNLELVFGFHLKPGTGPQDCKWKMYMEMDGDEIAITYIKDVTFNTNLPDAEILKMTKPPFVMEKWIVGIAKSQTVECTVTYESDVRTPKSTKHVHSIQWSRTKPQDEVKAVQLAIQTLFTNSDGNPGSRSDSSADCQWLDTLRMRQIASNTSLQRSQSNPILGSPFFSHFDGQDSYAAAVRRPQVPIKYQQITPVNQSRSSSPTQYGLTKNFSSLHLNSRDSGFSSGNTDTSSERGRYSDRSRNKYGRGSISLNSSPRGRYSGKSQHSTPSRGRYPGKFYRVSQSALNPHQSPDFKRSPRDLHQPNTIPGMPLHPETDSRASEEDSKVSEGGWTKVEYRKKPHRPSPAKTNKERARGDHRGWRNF", "test": "Selectivity interaction (KinomeScan (DiscoverX)) EUB0000595a MAP3K20", "conditions": "at 10 µM"}, "[7]": {"target": "Proto-oncogene tyrosine-protein kinase ROS (Homo sapiens) (UniProt P08922)", "sequence (P08922 whole entry)": "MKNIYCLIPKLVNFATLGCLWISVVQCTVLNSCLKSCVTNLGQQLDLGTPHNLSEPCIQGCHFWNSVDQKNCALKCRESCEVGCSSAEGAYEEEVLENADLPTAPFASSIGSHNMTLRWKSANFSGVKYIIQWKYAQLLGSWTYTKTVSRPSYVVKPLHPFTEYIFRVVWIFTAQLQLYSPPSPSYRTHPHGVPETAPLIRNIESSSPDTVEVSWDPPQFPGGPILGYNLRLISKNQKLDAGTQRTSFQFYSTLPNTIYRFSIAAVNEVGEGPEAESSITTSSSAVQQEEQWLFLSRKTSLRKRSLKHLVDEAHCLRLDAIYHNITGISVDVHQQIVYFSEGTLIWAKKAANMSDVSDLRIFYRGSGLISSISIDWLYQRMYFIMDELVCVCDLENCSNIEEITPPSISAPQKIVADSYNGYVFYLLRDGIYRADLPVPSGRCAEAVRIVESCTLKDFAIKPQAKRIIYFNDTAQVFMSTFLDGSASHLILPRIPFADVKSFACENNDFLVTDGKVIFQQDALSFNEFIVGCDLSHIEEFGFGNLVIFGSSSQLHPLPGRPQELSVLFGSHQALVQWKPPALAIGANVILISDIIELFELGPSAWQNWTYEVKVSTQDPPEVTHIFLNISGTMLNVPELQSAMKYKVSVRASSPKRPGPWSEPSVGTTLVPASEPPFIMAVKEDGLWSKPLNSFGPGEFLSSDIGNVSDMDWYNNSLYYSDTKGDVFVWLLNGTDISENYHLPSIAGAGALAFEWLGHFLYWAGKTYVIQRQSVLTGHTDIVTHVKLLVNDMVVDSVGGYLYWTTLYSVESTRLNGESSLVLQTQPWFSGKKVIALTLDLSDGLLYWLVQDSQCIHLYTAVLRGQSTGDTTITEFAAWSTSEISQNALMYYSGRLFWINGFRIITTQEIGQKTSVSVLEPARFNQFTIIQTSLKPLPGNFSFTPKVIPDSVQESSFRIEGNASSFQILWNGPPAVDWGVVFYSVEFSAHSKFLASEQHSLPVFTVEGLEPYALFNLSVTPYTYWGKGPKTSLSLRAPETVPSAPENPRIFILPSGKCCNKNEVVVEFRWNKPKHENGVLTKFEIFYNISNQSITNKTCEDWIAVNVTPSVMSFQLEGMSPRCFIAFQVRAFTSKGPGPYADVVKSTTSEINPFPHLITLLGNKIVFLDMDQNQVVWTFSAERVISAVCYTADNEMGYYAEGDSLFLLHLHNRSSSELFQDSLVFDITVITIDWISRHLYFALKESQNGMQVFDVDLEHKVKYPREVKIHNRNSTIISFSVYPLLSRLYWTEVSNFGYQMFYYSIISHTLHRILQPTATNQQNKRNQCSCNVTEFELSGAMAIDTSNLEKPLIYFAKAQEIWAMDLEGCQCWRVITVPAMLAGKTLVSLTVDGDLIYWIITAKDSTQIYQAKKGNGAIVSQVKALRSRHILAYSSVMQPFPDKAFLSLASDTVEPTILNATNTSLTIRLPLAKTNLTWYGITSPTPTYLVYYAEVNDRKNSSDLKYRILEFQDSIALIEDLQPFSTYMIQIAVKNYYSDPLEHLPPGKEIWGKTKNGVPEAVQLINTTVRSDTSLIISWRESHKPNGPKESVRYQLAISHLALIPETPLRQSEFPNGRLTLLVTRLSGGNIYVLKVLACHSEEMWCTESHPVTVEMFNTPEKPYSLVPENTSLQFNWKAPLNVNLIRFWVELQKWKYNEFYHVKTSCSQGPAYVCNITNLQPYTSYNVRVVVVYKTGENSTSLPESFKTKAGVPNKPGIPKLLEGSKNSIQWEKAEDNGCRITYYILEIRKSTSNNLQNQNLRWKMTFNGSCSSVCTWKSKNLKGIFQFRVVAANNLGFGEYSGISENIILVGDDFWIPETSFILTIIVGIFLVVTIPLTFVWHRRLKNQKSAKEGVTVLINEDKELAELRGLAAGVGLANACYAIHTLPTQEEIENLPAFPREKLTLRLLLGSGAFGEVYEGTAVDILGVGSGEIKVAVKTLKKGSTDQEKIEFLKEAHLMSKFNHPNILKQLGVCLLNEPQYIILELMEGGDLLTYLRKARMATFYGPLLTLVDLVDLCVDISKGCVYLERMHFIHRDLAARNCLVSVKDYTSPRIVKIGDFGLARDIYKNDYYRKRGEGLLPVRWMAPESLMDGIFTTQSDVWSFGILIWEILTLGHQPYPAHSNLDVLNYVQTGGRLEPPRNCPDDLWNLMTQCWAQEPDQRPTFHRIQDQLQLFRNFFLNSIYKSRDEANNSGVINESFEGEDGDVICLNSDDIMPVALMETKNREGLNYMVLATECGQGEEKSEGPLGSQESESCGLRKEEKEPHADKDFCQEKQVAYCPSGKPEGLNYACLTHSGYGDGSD", "test": "Selectivity interaction (KinomeScan (DiscoverX)) EUB0000229b ROS1", "conditions": "at 10 µM"}, "[8]": {"target": "Wee1-like protein kinase (Homo sapiens) (UniProt P30291)", "test": "Selectivity interaction (KinomeScan (DiscoverX)) EUB0000092b WEE1", "conditions": "at 10 µM"}, "[9]": {"target": "T2, Receptor-interacting serine/threonine-protein kinase 4 (Homo sapiens) (UniProt P57078)", "T2 sequence (whole entry)": "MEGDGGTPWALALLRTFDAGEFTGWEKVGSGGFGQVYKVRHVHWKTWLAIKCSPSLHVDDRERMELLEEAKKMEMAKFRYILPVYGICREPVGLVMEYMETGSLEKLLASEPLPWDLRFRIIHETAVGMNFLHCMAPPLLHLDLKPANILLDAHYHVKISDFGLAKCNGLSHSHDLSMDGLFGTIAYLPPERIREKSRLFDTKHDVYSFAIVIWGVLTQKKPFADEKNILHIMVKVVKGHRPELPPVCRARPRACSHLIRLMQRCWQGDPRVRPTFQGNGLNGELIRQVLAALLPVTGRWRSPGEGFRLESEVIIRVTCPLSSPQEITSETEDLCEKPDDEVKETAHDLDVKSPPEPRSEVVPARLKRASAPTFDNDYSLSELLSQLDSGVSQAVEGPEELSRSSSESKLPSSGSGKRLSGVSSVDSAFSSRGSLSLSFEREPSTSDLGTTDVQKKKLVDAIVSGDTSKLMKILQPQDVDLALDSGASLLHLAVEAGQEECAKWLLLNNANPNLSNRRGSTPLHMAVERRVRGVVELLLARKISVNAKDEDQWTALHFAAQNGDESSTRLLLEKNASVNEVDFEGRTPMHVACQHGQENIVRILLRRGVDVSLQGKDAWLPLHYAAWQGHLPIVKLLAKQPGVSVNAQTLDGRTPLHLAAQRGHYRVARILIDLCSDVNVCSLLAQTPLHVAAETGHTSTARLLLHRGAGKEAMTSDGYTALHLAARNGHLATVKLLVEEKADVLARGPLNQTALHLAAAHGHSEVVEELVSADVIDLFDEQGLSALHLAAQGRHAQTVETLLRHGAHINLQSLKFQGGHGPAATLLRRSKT", "test": "Selectivity interaction (KinomeScan (DiscoverX)) EUB0000092b RIPK4", "conditions": "at 10 µM"}, "[10]": {"target": "T3, Tyrosine-protein kinase ZAP-70 (Homo sapiens) (UniProt P43403)", "T3 sequence (whole entry)": "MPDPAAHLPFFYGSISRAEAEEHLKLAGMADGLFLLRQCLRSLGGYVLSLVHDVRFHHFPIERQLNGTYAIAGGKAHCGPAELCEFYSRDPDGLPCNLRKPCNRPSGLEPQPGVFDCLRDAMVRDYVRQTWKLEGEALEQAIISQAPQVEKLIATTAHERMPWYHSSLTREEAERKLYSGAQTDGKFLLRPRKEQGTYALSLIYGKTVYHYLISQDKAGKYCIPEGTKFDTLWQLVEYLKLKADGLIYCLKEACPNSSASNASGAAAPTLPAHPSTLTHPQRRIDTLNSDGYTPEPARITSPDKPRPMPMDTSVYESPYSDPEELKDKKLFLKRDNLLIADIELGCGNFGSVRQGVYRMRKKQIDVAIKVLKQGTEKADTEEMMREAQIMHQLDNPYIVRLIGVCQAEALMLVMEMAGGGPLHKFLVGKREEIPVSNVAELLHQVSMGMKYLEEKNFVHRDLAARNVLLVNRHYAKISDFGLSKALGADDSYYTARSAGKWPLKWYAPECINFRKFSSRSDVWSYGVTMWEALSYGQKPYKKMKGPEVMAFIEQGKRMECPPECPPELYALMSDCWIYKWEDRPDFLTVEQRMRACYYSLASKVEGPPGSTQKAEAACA", "test": "Selectivity interaction (Kinase panel (KiNativ target engagement assay in Jurkat cells)) EUB0001635a ZAP70", "format": "cell-based", "conditions": "at 1 µM"}}}
{"smiles": "Cc1cc([C@@H](C)Nc2ccccc2C(=O)O)c2nc(N3CCOCC3)cc(=O)n2c1", "note": "[AZD-6482]", "values": [{"measurement": "% of control", "setting": "[1]", "value": 63, "unit": "%"}, {"measurement": "% of control", "setting": "[2]", "value": 98, "unit": "%"}]}
{"smiles": "CN(C)C/C=C/C(=O)Nc1ccc(C(=O)N2CCCC(Nc3ncc(Cl)c(-c4c[nH]c5ccccc45)n3)C2)cc1", "note": "(stereo unspecified)", "values": [{"measurement": "% of control", "setting": "[3]", "value": 89, "unit": "%"}]}
{"smiles": "CN1Cc2nccc(-c3cn(C)nc3-c3ccc(F)cc3)c2C1=O", "values": [{"measurement": "% of inhibition", "setting": "[4]", "value": 1, "unit": "%"}]}
{"smiles": "Cc1cc(F)c(C(=O)Nc2cccc(-c3nncn3C(C)C)n2)cc1-n1cnc(C2CC2)c1", "values": [{"measurement": "% of control", "setting": "[5]", "value": 76, "unit": "%"}]}
{"smiles": "COCC(=O)NC/C=C/c1ccc2ncnc(Nc3ccc(Oc4ccc(C)nc4)c(C)c3)c2c1", "note": "[CP-724714]", "values": [{"measurement": "% of control", "setting": "[6]", "value": 76, "unit": "%"}]}
{"smiles": "COc1cc(N(C)c2ccnc3ccc(C(F)(F)F)cc23)cc(OC)c1OC", "values": [{"measurement": "% binding", "setting": "[7]", "value": 86, "unit": "%"}]}
{"smiles": "CCC(=O)N1CCN(c2ccc(-n3c(=O)ccc4cnc5ccc(-c6cnc7ccccc7c6)cc5c43)cc2C(F)(F)F)CC1", "values": [{"measurement": "% of control", "setting": "[8]", "value": 42, "unit": "%"}, {"measurement": "% of control", "setting": "[9]", "value": 100, "unit": "%"}]}
{"smiles": "C=CC(=O)Nc1ccc(C(=O)Nc2[nH]nc3c2CN(C(=O)N[C@H](CN(C)C)c2ccccc2)C3(C)C)cc1", "values": [{"measurement": "% of engagement", "setting": "[10]; Selectivity number of off-targets 0.0, Selectivity number of targets 233.0, Source Knowledge https://www.sciencedirect.com/science/article/pii/S2451945619300674?via%3Dihub", "value": -13.8, "unit": "%"}, {"measurement": "% of engagement", "setting": "[10]", "value": -8.5, "unit": "%"}]}
